Test [1] has as its system PMA-differentiated THP-1 cells. The test can be described thus: hTHP-1 assay containing 10% fetal bovine serum (IL-1β production, Tables B5 and B6). Type of test: cell-based, human. The following applies: Table B5. The method, boiled down:
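IL-1β release from PMA-differentiated THP-1 macrophage-like cells was triggered by 5 μM gramicidin for 2 h after 1 h compound exposure, then measured by HTRF.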

The test system of test [2] is PMA-differentiated THP-1 cells. Description: IL-1β production in PMA-differentiated THP-1 cells stimulated with gramicidin (hTHP-1 assay containing 2% fetal bovine serum; Procedures 1 and 2). It counts as cell-based, human. The following applies: Table B5. The method, boiled down:
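Human monocytic THP-1 cells, matured overnight with PMA at 20 ng/ml, are seeded in low-serum (2% FBS) RPMI. Test compounds, at final concentrations from 100 down to 0.0017 μM, precede gramicidin (5 μM, 2 h) by one hour. Released IL-1β is then determined by HTRF.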

[3] abbreviates: Homo sapiens, THP-1, read-out: hTHP-1 IC50 in 10% FBS, hTHP-1 assay containing 10% fetal bovine serum.
Where [4] appears, read: Homo sapiens, THP-1, read-out: hTHP-1 IC50 in 2% FBS, hTHP-1 assay containing 2% fetal bovine serum.

Molecules are shown by their SMILES.

Regarding `CC(C)n1cc(F)c(S(N)(=O)=NC(=O)Nc2c3c(nc4c2CCC42CC2)CCC3)n1` (single isomer, unassigned) [Compound 1102a, (R) or (S)-4-Fluoro-1-isopropyl-N′-((1′,5′,6′,7′-tetrahydro-2′H-spiro [cyclopropane-1,3′-dicyclopenta[b,e]pyridin]-8′-yl)carbamoyl)-1H-pyrazole-3-sulfonimidamide], the IC50 in test [1] (read-out: hTHP-1 IC50 in 10% FBS, hTHP-1 assay containing 10% fetal bovine serum, listed as 813) was 8 to 40 nM; in test [2] (read-out: hTHP-1 IC50 in 2% FBS, hTHP-1 assay containing 2% fetal bovine serum, listed as 813) it was 8 to 40 nM.
`CC(C)n1cc(F)c(S(N)(=O)=NC(=O)Nc2c3c(nc(C4CC4)c2C2CC2)CCC3)n1` (single isomer, unassigned) [Compound 1103b, (S) or (R)-N′-((2,3-dicyclopropyl-6,7-dihydro-5H-cyclopenta[b]pyridin-4-yl)carbamoyl)-4-fluoro-1-isopropyl-1H-pyrazole-3-sulfonimidamide]: the IC50 fell in the range of 1000 to 5000 nM in test [1] (read-out: hTHP-1 IC50 in 10% FBS, hTHP-1 assay containing 10% fetal bovine serum, listed as 816) and 5000 to 30000 nM in test [2] (read-out: hTHP-1 IC50 in 2% FBS, hTHP-1 assay containing 2% fetal bovine serum, listed as 816).
Turning to `CC(C)n1cc(F)c(S(N)(=O)=NC(=O)Nc2c3c(nc4c2CCC42CC2)CCC3)n1` (stereo not shown) [Compound 1102, 4-Fluoro-1-isopropyl-N′-((1′,5′,6′,7′-tetrahydro-2′H-spiro [cyclopropane-1,3′-dicyclopenta[b,e]pyridin]-8′-yl)carbamoyl)-1H-pyrazole-3-sulfonimidamide], the IC50 in test [1] (setting [3]) and in test [2] (setting [4]) was 8 to 40 nM throughout.
For the compound `CCn1cc(F)c([S@](N)(=O)=NC(=O)Nc2c(C)c(C(F)(F)F)nc3c2[C@@H](C)CC3)n1` (single isomer, unassigned) [Compound 1100b, (R, S) or (R, R)-N′-((3,5-dimethyl-2-(trifluoromethyl)-6,7-dihydro-5H-cyclopenta[b]pyridin-4-yl)carbamoyl)-1-ethyl-4-fluoro-1H-pyrazole-3-sulfonimidamide], the figures for the IC50 in test [1] (setting [3]) and in test [2] (setting [4]) were 40 to 200 nM and 200 to 1000 nM, respectively.
For `CC(C)n1cc(F)c(S(N)(=O)=NC(=O)Nc2c3c(nc(C4CC4)c2C2CC2)CCC3)n1` (stereo not shown) [Compound 1103, N′-((2,3-dicyclopropyl-6,7-dihydro-5H-cyclopenta[b]pyridin-4-yl)carbamoyl)-4-fluoro-1-isopropyl-1H-pyrazole-3-sulfonimidamide] the same measures were 40 to 200 nM and 40 to 200 nM.
As to `CCn1cc(F)c(S(N)(=O)=NC(=O)Nc2c(C)c(C(F)(F)F)nc3c2C(C)CC3)n1` (stereo not shown) [Compound 1100, N′-((3,5-dimethyl-2-(trifluoromethyl)-6,7-dihydro-5H-cyclopenta[b]pyridin-4-yl)carbamoyl)-1-ethyl-4-fluoro-1H-pyrazole-3-sulfonimidamide], the 50% inhibitory concentration (IC50) in test [1] (read-out: hTHP-1 IC50 in 10% FBS, hTHP-1 assay containing 10% fetal bovine serum, listed as 795) fell in the range of 1000 to 5000 nM; in test [2] (read-out: hTHP-1 IC50 in 2% FBS, hTHP-1 assay containing 2% fetal bovine serum, listed as 795), 1000 to 5000 nM.
With `CC(C)n1cc(F)c(S(N)(=O)=NC(=O)Nc2c3c(nc4c2CCC42CC2)CCC3)n1` (single isomer, unassigned) [Compound 1102b, (S) or (R)-4-Fluoro-1-isopropyl-N′-((1′,5′,6′,7′-tetrahydro-2′H-spiro [cyclopropane-1,3′-dicyclopenta[b,e]pyridin]-8′-yl)carbamoyl)-1H-pyrazole-3-sulfonimidamide], the 50% inhibitory concentration (IC50) in test [1] (read-out: hTHP-1 IC50 in 10% FBS, hTHP-1 assay containing 10% fetal bovine serum, listed as 814) is 1000 to 5000 nM; in test [2] (read-out: hTHP-1 IC50 in 2% FBS, hTHP-1 assay containing 2% fetal bovine serum, listed as 814) it was 1000 to 5000 nM.
As to `CCn1cc(F)c([S@](N)(=O)=NC(=O)Nc2c(C)c(C(F)(F)F)nc3c2[C@H](C)CC3)n1` (single isomer, unassigned) [Compound 1100a, (R, R) or (R, S)-N′-((3,5-dimethyl-2-(trifluoromethyl)-6,7-dihydro-5H-cyclopenta[b]pyridin-4-yl)carbamoyl)-1-ethyl-4-fluoro-1H-pyrazole-3-sulfonimidamide], the IC50 fell in the range of 1000 to 5000 nM in test [1] (setting [3]) and 5000 to 30000 nM in test [2] (setting [4]).
